Measurements as given in US4769250A, “Antracycline antineoplastic agents encapsulated in phospholipid vesicle particles and methods for using same for tumor therapy” (priority 1987, dated 1988).

Tests used:
[1] = toxicity determined by survival in tumor-bearing mice; type: in vivo
[2] = test system: P-1798 solid lymphosarcoma; test: single dose chemotherapeutic efficacy, intradermal P-1798 solid lymphosarcoma; type: in vivo, mice; settings: 20 mg/kg single dose
Protocol: In the first investigation, groups of 10 mice received free daunorubicin or daunorubicin-vesicles in 20 mg/kg single doses at three or four days following tumor implantation. Tumors were measured using calipers and the survival over time of treated and control mice was recorded. Controls consisted of injections of a 5% dextrose in water solution at 2 ml/20 gm doses.
Representative results of these investigations are shown in FIG. 5 for treatment commencing on day 3 after tumor implantation. Typically, with tumor metastasis, mice with tumors die within 14-17 days. […] The median life span of mice injected with daunorubicin-vesicles was 21 days.

[3] = binding to distearoyl phosphatidylglycerol; read-out: binding constant; cited from earlier work
[4] = target: DNA; settings: binding to DNA; read-out: affinity for binding to DNA in a cell (converted); cited from earlier work
[5] = children highly susceptible (Mosijezuk et al.); cited from earlier work

COc1cccc2c1C(=O)c1c(O)c3c(c(O)c1C2=O)C[C@@](O)(C(C)=O)C[C@@H]3O[C@H]1C[C@H](N)[C@H](O)[C@H](C)O1 [daunorubicin]
toxicity induced deaths by dose ([1]; 10, 20 and 30 mg/kg): toxicity induced deaths occurred only for the high dose unencapsulated daunorubicin (30 mg/kg)
mortality ([1]; mouse, in vivo, 30 mg/kg, read-out: toxicity induced deaths): 100%
inhibition of tumor growth vs untreated controls [2]: significant inhibition of tumor growth
Kd [3]: ~10 µM
Kd [4]: ~500 nM

COc1cccc2c1C(=O)c1c(O)c3c(c(O)c1C2=O)C[C@@](O)(C(=O)CO)C[C@@H]3O[C@H]1C[C@H](N)[C@H](O)[C@H](C)O1 [doxorubicin]
cardiotoxicity [5]: congestive heart failure
